The text below walks through data of the RepoRT retention time repository.

A short description of the data set: HILIC, HILICON iHILIC-(P) Classic, HILIC, PEEK, 100 × 2.1 mm, 5 µm, 40 °C, 0.12 mL/min, estimated dead time 1.8 min; A: water + 20 mM ammonium carbonate + 5 µM medronic acid; B: 10% water + 90% acetonitrile + 2 mM ammonium carbonate + 0.5 µM medronic acid; gradient (min/%B) 0/95 18/55 19/20 22/20 22.5/95 24/95 26/95. As to conditions: stereoisomer not certain.

Structures are written as SMILES.

For the compound `NC(=O)c1ccc[n+](C2OC(COP(=O)(O)OP(=O)(O)OCC3OC(n4cnc5c(N)ncnc54)C(O)C3O)C(O)C2O)c1` (stereo not drawn) [NAD], the LC retention time was 10.4 min.
For `NCCCCC(N)C(=O)O` (stereo not drawn) [Lysine] the value was 18.5 min; for `NC(CCC(=O)O)C(=O)O` (stereo not drawn) [Glutamic acid], 9.95 min; for `O=C(O)CCC(=O)C(=O)O` [2-Oxoglutaric acid], 12.7 min.
As for `CC(O)C(=O)O` (stereo not drawn) [Lactic Acid], the LC retention time is 3.31 min.
For `O=P(O)(O)OCC1OC(O)(COP(=O)(O)O)C(O)C1O` (stereo not drawn) [Fructose-1,6-bisphosphate] the value was 15.9 min; for `Nc1ncnc2c1ncn2C1OC(COP(=O)(O)OP(=O)(O)OP(=O)(O)O)C(O)C1O` (stereo not drawn) [ATP], 13.7 min; for `CC(=O)SCCNC(=O)CCNC(=O)C(O)C(C)(C)COP(=O)(O)OP(=O)(O)OCC1OC(n2cnc3c(N)ncnc32)C(O)C1OP(=O)(O)O` (stereo not drawn) [Acetyl-CoA], 10 min.
With `NC(=O)c1ccc[n+](C2OC(COP(=O)(O)OP(=O)(O)OCC3OC(n4cnc5c(N)ncnc54)C(OP(=O)(O)O)C3O)C(O)C2O)c1` (stereo not drawn) [NADP], the LC retention time is 14.3 min.
With `O=C(CO)COP(=O)(O)O` [Triose phosphate], the LC retention time is 11.3 min.
On to `Nc1ncnc2c1ncn2C1OC(COP(=O)(O)OP(=O)(O)O)C(O)C1O` (stereo not drawn) [ADP], for which the LC retention time was 12.2 min.
On to `NC(=O)CCC(N)C(=O)O` (stereo not drawn) [Glutamine], for which the LC retention time is 9.95 min.
The same measure for `NC(=O)C1=CN(C2OC(COP(=O)(O)OP(=O)(O)OCC3OC(n4cnc5c(N)ncnc54)C(OP(=O)(O)O)C3O)C(O)C2O)C=CC1` (stereo not drawn) [NADPH]: 15.5 min; for `O=C(O)C=CC(=O)O` [Fumaric Acid]: 12 min.
`NC(=O)CC(N)C(=O)O` (stereo not drawn) [Asparagine]: the LC retention time is 9.93 min.
As for `Nc1ncnc2c1ncn2C1OC(COP(=O)(O)O)C(O)C1O` (stereo not drawn) [AMP], the LC retention time was 9.81 min.
For `O=C(O)CC(C(=O)O)C(O)C(=O)O` (stereo not drawn) [Isocitric acid] the value was 15.7 min; for `O=C(O)CC(O)C(=O)O` (stereo not drawn) [Malic Acid], 11.9 min; for `O=P(O)(O)OC1OC(CO)C(O)C(O)C1O` (stereo not drawn) [Glucose-1-phosphate], 12.5 min.
The same measure for `NC(CCC(=O)NC(CS)C(=O)NCC(=O)O)C(=O)O` (stereo not drawn) [GSH]: 9.93 min; for `CC(=O)NC1C(OP(=O)(O)OP(=O)(O)OCC2OC(n3ccc(=O)[nH]c3=O)C(O)C2O)OC(CO)C(O)C1O` (stereo not drawn) [UDP-GlcNAc]: 11.7 min.
For `NC(=O)C1=CN(C2OC(COP(=O)(O)OP(=O)(O)OCC3OC(n4cnc5c(N)ncnc54)C(O)C3O)C(O)C2O)C=CC1` (stereo not drawn) [NADH] the value was 9.3 min; for `O=P(O)(O)OCC1OC(O)C(O)C1O` (stereo not drawn) [Pentose-phosphate], 11.3 min; for `O=C(CO)C(O)C(O)C(O)COP(=O)(O)O` (stereo not drawn) [Fructose 6-phosphate], 12.5 min.
Regarding `CC(C)(COP(=O)(O)OP(=O)(O)OCC1OC(n2cnc3c(N)ncnc32)C(O)C1OP(=O)(O)O)C(O)C(=O)NCCC(=O)NCCS` (stereo not drawn) [CoenzymeA], the LC retention time was 11.4 min.
The same measure for `C=C(OP(=O)(O)O)C(=O)O` [PEP]: 14.5 min; for `Nc1ncnc2c1ncn2C1OC(CO)C(O)C1O` (stereo not drawn) [Adenosine]: 4.33 min.
The same measure for `NC(CCC(=O)NC(CSSCC(NC(=O)CCC(N)C(=O)O)C(=O)NCC(=O)O)C(=O)NCC(=O)O)C(=O)O` (stereo not drawn) [GSSG]: 14.8 min.
As for `O=C(O)CC(O)(CC(=O)O)C(=O)O` [Citric acid], the LC retention time is 15 min.
As for `O=P(O)(O)OCC1OC(O)C(O)C(O)C1O` (stereo not drawn) [Glucose-6-phosphate], the LC retention time was 13.5 min.
As to `O=C(O)CCC(=O)O` [Succinic Acid], the LC retention time is 10.9 min.
For `O=P(O)(O)OCC(O)CO` (stereo not drawn) [Glycerol-3-phosphate] the value was 11 min.
For `NC(N)=NCCCC(N)C(=O)O` (stereo not drawn) [Arginine] the value was 18.9 min.
